According to ChEMBL document CHEMBL1201862, “PubChem BioAssay data set” (2004):
The source made the active and inactive calls.

Columns and labels:
[1] = system: Escherichia coli; assay: microbe, parasite or virus in culture
[2] = inhibitors of intracellular T. cruzi replication, confirmation, NIH3T3 host cells, beta-gal luminescence (AID 2044); format: functional, cell-based;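 also: intracellular parasites grown in NIH/3T3 mouse fibroblasts as host cells; luminescent beta-galactosidase reporter signal from transgenic T. cruzi replicating inside host cells; inhibitors lower the luminescence signal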
[3] = system: Vero; assay: cells; format: functional, cell-based; conditions: Chlorocebus sabaeus
[4] = cytotoxicity toward NIH3T3 fibroblasts, dose response, counter-screen, cell-based, ATP luminescence, mouse fibroblasts (AID 2010); format: functional;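 also: cells exposed to compound for about 90 hours before reading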
[5] = cells; format: functional
[6] = target: 5-hydroxytryptamine receptor 5A (Homo sapiens, UniProt P47898); assay: Counterscreen for agonists of OPRM1-OPRD1 heterodimerization: luminescence-based cell-based high throughput dose response assay to identify agonists of 5-hydroxytryptamine (serotonin) 5A receptor (HTR5A). [Related pubchem assays (depositor defined):AID504326, AID504355, AID504692, AID504904, AID504905]; format: functional
Sequence of 5-hydroxytryptamine receptor 5A (P47898 whole entry): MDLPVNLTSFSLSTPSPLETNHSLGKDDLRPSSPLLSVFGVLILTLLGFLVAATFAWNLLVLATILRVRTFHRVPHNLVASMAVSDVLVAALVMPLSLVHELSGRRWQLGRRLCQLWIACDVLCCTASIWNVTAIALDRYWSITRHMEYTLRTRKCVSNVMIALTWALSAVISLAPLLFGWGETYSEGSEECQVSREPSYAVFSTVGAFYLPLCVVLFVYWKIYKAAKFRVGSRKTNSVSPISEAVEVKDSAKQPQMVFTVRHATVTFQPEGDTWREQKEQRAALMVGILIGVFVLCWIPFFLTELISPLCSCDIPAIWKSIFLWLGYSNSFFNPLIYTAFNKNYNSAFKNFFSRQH

[7] = target: T1, Short transient receptor potential channel 4 (Mus musculus, UniProt Q9QUQ5); assay: mouse TRPC4 channel activators, dose response, cell-based, HEK293 TRPC4/mu-opioid, Fluo-4 calcium (AID 434937); format: functional
T1 sequence (Q9QUQ5 whole entry): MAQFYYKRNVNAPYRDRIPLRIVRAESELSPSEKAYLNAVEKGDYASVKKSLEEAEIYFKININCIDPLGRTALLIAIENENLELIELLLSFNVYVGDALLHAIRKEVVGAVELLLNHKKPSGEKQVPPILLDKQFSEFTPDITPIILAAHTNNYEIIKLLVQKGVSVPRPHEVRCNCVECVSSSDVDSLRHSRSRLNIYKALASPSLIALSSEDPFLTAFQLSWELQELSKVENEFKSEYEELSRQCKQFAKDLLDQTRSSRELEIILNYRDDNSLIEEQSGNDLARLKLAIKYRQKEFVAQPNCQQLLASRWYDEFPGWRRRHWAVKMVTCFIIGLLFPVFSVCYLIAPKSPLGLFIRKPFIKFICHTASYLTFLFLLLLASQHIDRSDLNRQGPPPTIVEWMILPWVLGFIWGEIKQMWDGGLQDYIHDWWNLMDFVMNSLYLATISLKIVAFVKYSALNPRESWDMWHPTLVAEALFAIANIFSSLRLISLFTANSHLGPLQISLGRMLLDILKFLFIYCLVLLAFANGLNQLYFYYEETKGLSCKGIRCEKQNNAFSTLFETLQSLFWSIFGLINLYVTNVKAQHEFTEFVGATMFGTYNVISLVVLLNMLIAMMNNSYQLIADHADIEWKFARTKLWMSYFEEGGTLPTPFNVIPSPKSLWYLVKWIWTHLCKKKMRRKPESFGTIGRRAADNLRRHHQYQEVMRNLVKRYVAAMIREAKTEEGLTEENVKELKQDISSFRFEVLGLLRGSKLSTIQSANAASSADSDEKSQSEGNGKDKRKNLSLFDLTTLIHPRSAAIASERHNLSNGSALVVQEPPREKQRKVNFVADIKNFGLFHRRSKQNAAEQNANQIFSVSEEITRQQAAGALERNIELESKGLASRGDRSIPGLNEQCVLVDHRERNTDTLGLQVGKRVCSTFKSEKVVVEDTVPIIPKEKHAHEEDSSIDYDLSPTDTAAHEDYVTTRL

[8] = target: Delta-type opioid receptor (Homo sapiens, UniProt P41143); assay: Counterscreen for agonists of heterodimerization of the mu 1 (OPRM1) and delta 1 (OPRD1) opioid receptors: Luminescence-based cell-based high throughput dose response assay to identify agonists of OPRD1 homodimerization. [Related pubchem assays (depositor defined):AID504326, AID504355, AID504692, AID504904, AID504905]; format: functional
Sequence of Delta-type opioid receptor (P41143 whole entry): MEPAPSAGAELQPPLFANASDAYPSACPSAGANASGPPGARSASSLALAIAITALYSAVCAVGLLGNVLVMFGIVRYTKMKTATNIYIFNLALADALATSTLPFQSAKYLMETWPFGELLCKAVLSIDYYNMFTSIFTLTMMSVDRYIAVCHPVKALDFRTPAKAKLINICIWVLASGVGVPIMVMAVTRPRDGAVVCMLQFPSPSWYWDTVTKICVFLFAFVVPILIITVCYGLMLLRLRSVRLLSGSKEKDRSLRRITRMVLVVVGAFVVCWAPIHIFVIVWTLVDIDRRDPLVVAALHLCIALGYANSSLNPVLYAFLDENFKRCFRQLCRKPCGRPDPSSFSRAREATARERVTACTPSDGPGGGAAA

[9] = target: Mu-type opioid receptor (Homo sapiens, UniProt P35372); assay: Counterscreen for agonists of heterodimerization of the mu 1 (OPRM1) and delta 1 (OPRD1) opioid receptors: Luminescence-based cell-based high throughput dose response assay to identify agonists of OPRM1 homodimerization.; format: functional;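 also: U2OS cells expressing OPRM1 and beta-arrestin as split beta-galactosidase partners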
Sequence of Mu-type opioid receptor (P35372 whole entry): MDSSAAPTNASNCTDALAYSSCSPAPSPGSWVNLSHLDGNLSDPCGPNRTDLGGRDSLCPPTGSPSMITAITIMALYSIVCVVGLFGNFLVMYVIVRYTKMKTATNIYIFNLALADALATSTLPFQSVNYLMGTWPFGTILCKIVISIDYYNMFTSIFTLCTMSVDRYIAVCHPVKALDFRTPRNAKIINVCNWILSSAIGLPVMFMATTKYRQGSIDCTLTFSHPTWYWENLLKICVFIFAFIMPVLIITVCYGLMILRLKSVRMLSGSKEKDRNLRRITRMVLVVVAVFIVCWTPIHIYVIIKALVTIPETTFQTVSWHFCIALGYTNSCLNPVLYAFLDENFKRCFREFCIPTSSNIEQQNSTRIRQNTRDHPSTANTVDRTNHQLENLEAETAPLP

[10] = target: T2, Replicative DNA helicase DnaB (Mycobacterium tuberculosis, UniProt P9WMR3); assay: DnaB intein splicing inhibitors, dose response, biochemical, cell-free fluorescence (AID 449749); format: functional
T2 sequence (P9WMR3 whole entry): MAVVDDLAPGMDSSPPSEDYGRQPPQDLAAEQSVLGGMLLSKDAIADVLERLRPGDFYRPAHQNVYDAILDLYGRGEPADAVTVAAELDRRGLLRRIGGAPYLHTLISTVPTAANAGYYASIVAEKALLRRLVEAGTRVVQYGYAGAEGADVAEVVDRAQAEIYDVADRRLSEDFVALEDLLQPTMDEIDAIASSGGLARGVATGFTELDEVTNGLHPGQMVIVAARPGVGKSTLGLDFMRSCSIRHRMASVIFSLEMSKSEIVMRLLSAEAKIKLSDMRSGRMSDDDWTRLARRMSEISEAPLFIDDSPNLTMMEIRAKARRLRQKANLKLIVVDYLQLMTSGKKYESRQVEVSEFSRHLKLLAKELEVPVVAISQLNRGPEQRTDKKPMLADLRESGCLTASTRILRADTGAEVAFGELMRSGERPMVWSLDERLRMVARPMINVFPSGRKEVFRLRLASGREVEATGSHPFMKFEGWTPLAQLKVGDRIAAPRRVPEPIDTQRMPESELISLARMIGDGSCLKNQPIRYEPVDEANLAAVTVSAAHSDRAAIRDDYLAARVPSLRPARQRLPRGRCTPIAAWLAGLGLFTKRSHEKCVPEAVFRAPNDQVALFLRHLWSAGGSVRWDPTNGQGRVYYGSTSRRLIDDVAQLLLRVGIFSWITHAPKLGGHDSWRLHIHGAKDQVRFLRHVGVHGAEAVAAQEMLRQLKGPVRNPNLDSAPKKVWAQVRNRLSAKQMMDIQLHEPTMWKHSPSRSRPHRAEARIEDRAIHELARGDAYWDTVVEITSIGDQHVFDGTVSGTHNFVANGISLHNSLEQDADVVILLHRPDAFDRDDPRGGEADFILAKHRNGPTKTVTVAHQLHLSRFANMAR

[11] = system: HEK293; assay: cells; conditions: Homo sapiens
[12] = target: T3, Protein RecA (Mycobacterium tuberculosis, UniProt P9WHJ3); assay: Fluorescence Cell-Free Homogeneous Dose Retest to Identify Inhibitors of RecA-Intein Splicing Activity. [Related pubchem assays (depositor defined):AID2097, AID2223, AID489010, AID492950]; format: functional
T3 sequence (P9WHJ3 whole entry): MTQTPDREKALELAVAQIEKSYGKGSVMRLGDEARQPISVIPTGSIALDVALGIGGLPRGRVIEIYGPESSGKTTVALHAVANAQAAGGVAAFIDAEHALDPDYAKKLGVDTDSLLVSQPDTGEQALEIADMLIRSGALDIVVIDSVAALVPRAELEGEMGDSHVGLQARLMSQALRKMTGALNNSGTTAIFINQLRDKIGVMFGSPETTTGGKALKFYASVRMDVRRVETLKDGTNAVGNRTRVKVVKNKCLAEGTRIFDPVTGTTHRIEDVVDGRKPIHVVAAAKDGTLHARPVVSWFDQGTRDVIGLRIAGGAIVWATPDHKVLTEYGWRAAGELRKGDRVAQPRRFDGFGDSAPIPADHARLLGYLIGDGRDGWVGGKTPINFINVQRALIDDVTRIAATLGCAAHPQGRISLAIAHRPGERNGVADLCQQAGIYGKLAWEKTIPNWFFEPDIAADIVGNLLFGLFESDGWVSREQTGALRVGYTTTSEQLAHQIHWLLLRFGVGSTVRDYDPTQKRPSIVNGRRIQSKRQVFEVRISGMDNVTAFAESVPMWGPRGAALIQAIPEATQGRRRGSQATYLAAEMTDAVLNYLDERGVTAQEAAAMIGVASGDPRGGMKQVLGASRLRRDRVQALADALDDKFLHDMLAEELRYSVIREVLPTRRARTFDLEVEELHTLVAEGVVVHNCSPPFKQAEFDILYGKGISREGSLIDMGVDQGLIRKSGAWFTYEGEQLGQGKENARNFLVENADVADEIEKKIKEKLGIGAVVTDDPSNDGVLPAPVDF

[13] = target: T4, Fatty acid synthase (Homo sapiens, UniProt P49327); assay: FAS thioesterase domain inhibitors, dose response, biochemical, endpoint fluorescence intensity, uHTS hits (AID 624327); format: functional;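 also: fluorescence from hydrolysis of an O-methyl fluorescein acyl ester substrate by the enzyme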
[14] = target: T4, Fatty acid synthase; assay: FAS thioesterase domain inhibitors, dose response, biochemical, kinetic fluorescence intensity (AID 624326); format: functional;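 also: rate of fluorescence rise from hydrolysis of a fluorogenic O-methyl fluorescein ester substrate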
[15] = system: HEK293; assay: cells; conditions: Homo sapiens; remark: listed apart in the source
[16] = system: Vero; assay: host cell cytotoxicity of antiviral hits, dose response, cytotoxicity control for West Nile virus antiviral project, secondary assay (AID 1650); format: functional; conditions: Chlorocebus sabaeus
[17] = HEp-2 cell cytotoxicity, dose response, cytotoxicity control for RSV inhibitor project, HTS (AID 2410); format: functional; conditions: human respiratory syncytial virus
[18] = system: Vero; assay: cells; format: functional; conditions: Chlorocebus sabaeus
[19] = target: T5, SUMO-activating enzyme (Homo sapiens, UniProt Q9UBT2); assay: inhibitors of in vitro SUMOylation cascade, primary screen, biochemical, HTRF, uHTS (AID 2006); format: protein-complex assay
T5 sequence (Q9UBE0 whole entry): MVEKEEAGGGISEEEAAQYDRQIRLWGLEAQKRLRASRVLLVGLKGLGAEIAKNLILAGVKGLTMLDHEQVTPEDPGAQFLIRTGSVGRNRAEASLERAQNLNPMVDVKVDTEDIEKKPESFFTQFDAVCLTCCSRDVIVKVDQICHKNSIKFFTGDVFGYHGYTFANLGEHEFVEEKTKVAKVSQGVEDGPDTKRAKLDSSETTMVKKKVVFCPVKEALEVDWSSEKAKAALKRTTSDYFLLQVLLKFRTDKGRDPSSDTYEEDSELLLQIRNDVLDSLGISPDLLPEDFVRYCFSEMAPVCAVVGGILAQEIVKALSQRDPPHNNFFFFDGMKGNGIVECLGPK
T5 sequence (Q9UBT2 whole entry): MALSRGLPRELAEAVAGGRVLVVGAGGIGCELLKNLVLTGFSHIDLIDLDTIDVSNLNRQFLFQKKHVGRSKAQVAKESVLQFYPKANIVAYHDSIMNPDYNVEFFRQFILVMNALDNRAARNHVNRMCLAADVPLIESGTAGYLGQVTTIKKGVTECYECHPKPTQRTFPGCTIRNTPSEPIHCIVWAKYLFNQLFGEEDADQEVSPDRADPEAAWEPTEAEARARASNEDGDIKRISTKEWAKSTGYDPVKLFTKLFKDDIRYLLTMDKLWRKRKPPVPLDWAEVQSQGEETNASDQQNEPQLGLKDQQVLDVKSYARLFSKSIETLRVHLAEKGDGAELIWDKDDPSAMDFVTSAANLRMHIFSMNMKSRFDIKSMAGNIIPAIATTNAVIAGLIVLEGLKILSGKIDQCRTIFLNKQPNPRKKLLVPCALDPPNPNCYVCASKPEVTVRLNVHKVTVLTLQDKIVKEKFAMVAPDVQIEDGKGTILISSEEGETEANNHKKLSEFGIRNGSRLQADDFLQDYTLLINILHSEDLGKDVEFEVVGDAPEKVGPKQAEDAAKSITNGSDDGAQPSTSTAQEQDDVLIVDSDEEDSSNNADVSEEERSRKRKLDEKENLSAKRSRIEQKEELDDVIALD

[20] = target: T5, SUMO-activating enzyme; assay: SUMOylation inhibitor hit validation, confirmation, SUMOylation inhibitor project, biochemical, AlphaScreen (AID 2018); format: functional
[21] = target: T6, Mannose-6-phosphate isomerase (Homo sapiens, UniProt P34949); assay: human PMI inhibitors, high substrate, primary screen, biochemical, fluorescence intensity, high mannose 6-phosphate (AID 1220)
T6 sequence (P34949 whole entry): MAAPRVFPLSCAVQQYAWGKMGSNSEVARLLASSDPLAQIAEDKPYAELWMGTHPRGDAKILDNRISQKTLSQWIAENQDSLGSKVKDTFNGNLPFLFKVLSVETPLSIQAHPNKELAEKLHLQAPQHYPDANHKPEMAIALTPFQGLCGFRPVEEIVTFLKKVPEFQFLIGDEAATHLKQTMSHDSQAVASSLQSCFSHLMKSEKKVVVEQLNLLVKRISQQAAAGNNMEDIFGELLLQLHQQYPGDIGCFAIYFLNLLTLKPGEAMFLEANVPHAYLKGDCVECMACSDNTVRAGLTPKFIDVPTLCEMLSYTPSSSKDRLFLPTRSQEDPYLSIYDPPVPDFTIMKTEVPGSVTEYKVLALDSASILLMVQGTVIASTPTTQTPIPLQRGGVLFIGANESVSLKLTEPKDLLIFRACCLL

[22] = target: Cytochrome P450 2C9 (Homo sapiens, UniProt P11712)
Sequence of Cytochrome P450 2C9 (P11712 whole entry): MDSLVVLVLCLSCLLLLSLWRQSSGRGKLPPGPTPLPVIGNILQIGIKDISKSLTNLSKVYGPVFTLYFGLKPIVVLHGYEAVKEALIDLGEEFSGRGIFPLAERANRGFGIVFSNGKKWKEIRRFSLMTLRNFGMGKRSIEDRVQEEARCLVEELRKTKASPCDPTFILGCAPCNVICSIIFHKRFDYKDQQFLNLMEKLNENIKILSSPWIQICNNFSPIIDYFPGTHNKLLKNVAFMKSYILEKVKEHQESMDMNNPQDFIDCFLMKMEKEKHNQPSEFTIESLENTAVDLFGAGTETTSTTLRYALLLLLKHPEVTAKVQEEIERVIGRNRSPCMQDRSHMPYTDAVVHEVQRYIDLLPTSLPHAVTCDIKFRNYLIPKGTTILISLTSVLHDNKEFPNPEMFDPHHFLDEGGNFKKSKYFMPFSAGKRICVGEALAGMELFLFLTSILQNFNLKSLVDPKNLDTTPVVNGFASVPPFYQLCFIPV

[23] = target: T7, Cytochrome P450 1A2 (Homo sapiens, UniProt P05177);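 also: PubChem cytochrome P450 panel assay, CYP1A2 panel member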
T7 sequence (P05177 whole entry): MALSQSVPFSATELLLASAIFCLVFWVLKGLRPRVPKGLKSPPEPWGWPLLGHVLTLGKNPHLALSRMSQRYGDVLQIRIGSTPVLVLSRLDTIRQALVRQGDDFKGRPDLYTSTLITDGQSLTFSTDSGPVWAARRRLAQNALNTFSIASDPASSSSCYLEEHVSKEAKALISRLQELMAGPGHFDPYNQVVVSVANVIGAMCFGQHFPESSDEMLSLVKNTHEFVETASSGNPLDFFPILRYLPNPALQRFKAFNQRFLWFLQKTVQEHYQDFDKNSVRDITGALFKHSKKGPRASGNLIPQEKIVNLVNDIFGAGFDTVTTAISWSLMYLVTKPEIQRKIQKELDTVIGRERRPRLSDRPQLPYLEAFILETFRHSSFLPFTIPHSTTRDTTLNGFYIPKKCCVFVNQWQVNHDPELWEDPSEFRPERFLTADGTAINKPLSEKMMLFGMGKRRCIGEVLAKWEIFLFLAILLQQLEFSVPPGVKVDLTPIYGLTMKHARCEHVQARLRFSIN

[24] = target: Cytochrome P450 2C19 (Homo sapiens, UniProt P33261); assay: Cytochrome panel assay with activity outcomes. Panel member name: p450-cyp2c19 Compounds with AC50 equal or less than 10 uM are considered active; format: functional
Sequence of Cytochrome P450 2C19 (P33261 whole entry): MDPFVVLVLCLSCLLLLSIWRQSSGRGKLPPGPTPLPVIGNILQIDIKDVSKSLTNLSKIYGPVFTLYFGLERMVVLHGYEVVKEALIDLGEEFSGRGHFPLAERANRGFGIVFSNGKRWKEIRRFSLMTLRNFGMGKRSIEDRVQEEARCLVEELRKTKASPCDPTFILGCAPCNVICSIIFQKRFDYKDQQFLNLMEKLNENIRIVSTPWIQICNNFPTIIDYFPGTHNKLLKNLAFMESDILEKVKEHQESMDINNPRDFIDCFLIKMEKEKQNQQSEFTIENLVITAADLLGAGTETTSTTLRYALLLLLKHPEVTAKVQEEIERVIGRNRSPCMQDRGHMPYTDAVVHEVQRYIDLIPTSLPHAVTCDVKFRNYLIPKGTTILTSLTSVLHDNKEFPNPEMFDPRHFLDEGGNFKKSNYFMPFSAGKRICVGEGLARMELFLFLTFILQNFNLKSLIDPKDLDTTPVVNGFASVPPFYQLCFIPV

[25] = system: Escherichia coli; assay: microbe, parasite or virus in culture; remark: listed apart in the source
[26] = target: T1, Short transient receptor potential channel 4; assay: SAR Analysis for the identification of selective inhibits of the transient receptor potential cation channel C4 (TRPC4): Automated Electrophysiology_2. [Related pubchem assays (depositor defined):AID2256]; format: functional

CCCCOCC1CN(c2ccccc2)C(=O)CS1 (centres undefined)
AC50 [1]: 20.9 µM (active)

O=C1c2cccc3cc([N+](=O)[O-])cc(c23)C(=O)N1c1ccccc1O
EC50 [2]: 0.354 µM (active) | IC50 [3]: 2.35 µM (active) | EC50 [4]: 9.05 µM (active) | IC50 [5]: > 50 µM (active)

CCOC(=O)C1(CC2CCCCO2)CCN(Cc2c(C)cc(C)cc2-n2cccn2)CC1 (centres undefined)
EC50 [6]: > 92.5 µM (inactive) | EC50 [7]: 0.0293 µM (active) | EC50 [8]: > 92.5 µM (inactive) | EC50 [9]: 15.5 µM (inactive)

CCc1cccc(CC)c1NC(=O)/C(C#N)=C/c1ccccc1C(F)(F)F
AC50 [10]: 4.45 µM (active) | EC50 [11]: > 59.6 µM (inactive) | EC50 [12]: 11.7 µM (active) | IC50 [13]: 7.72 µM (active) | IC50 [14]: 4.74 µM (active) | EC50 [15]: > 59.6 µM (inactive)

COc1ccc(-c2csc(N(CCCN(C)C)C(=O)c3cccs3)n2)cc1
EC50 [6]: > 92.5 µM (inactive) | EC50 [8]: > 92.5 µM (inactive) | EC50 [9]: > 92.5 µM (inactive)

CC1(C)COC(/C=C/c2cccc([N+](=O)[O-])c2)=N1
CC50 [16]: 12.6 µM (active) | CC50 [17]: 9.78 µM (active) | IC50 [3]: 21.5 µM (active) | CC50 [18]: 15.1 µM (active)

O=C(O)CN1C(=O)/C(=C/c2ccc(SCc3ccccc3)o2)SC1=S
IC50 [19]: 15.5 µM (active) | IC50 [20]: 4.13 µM (active) | IC50 [21]: > 50 µM (not active)

CS(=O)(=O)N1CCC2(CC1)CN(c1ccc(-c3ccccc3)cc1)C2
AC50 [22]: inconclusive | AC50 [23]: inconclusive | AC50 [24]: inconclusive

COc1ccc(C(=O)C2(C)N(O)C(C)C(c3cccs3)=[N+]2[O-])cc1 (centres undefined)
AC50 [25]: > 380 µM (inactive)

COc1cc2nc(N3CCN(C(=O)[C@H]4COc5ccccc5O4)CC3)nc(N)c2cc1OC.CS(=O)(=O)O
AC50 [23]: inactive | AC50 [24]: inactive

COc1ccccc1N1CCN(c2cc(C)c3ccccc3n2)CC1
IC50 [26]: 9.89 µM (active)

O=C(Nc1ccccc1Cl)c1ccccc1CC(O)(c1ccccc1)c1ccccc1
EC50 [11]: > 59.7 µM (inactive) | EC50 [15]: > 59.7 µM (inactive)
